In ChEMBL document CHEMBL1157277, “Antifungal and antibacterial metabolites from a sclerotium-colonizing isolate of Mortierella vinacea” (1999) one finds Activity, zone of inhibition and inhibition zone (IZ) data, which are given here for eight compounds.

One experiment concerns Aspergillus flavus. The experiment is described as follows: Antimicrobial activity against Aspergillus flavus NRRL 6541 at 250 ug/disk by standard disk assay. In kind it is functional, organism-based.
Experiment [1] deals with Candida albicans. The experiment is described as follows: Antimicrobial activity against Candida albicans ATCC 10453 at 100 ug/disk by standard disk assay. The settings on record: read-out: IZ. In kind it is functional.
Experiment [2] deals with Fusarium verticillioides. The experiment is described as follows: Antimicrobial activity against Fusarium verticillioides NRRL 25457 at 250 ug/disk by standard disk assay after 48 hrs. In kind it is functional. The settings on record: for zone of inhibition at 250 µg/disc: NRRL 25457, 48 h, read-out: IZ.
Experiment [3] has as its system Fusarium verticillioides. The experiment is described as follows: Antimicrobial activity against Fusarium verticillioides NRRL 25457 at 100 ug/disk by standard disk assay after 48 hrs. In kind it is functional, organism-based.
The test system of experiment [4] is Staphylococcus aureus. The experiment is described as follows: Antimicrobial activity against Staphylococcus aureus ATCC 14053 at 100 ug/disk by standard disk assay. Type of experiment: functional. Particulars: read-out: IZ.
Experiment [5] has as its system Bacillus subtilis. The experiment is described as follows: Antimicrobial activity against Bacillus subtilis ATCC 6051 at 100 ug/disk by standard disk assay. In kind it is functional. Particulars: read-out: IZ.
Experiment [6] relates to Bacillus subtilis. The experiment is described as follows: Antimicrobial activity against Bacillus subtilis ATCC 6051 at 50 ug/disk by standard disk assay. In kind it is functional, organism-based.
Experiment [7] concerns Staphylococcus aureus. The experiment is described as follows: Antimicrobial activity against Staphylococcus aureus ATCC 14053 at 50 ug/disk by standard disk assay. Type of experiment: functional, organism-based.
The subject of experiment [8] is Candida albicans. The experiment is described as follows: Antimicrobial activity against Candida albicans ATCC 10453 at 50 ug/disk by standard disk assay. In kind it is functional. The settings on record: read-out: IZ.

Active and inactive are the calls of the source. The rule behind the calls is not given here.

Consider `CSC(=O)c1c(C)c(C)c(O)c(C)c1O` [MORTIVINACIN A], for which the outcome in the experiment on Aspergillus flavus was inactive. Moreover, in the experiment with Candida albicans [1], the zone of inhibition at 100 µg/disc amounted to 15 mm. Also, the zone of inhibition at 250 µg/disc with Fusarium verticillioides [2] came out at 30 mm.

For NYSTATIN, the inhibition zone (IZ) in the experiment on Fusarium verticillioides [3] was 19 mm.

As for `COC(=O)[C@H](C)NC(=O)c1c(C)c(C)c(O)c(C)c1O`, the result in the experiment on Aspergillus flavus and in the experiment with Fusarium verticillioides [2] was inactive.

On to `COC(=O)CNC(=O)c1c(C)c(C)c(O)c(C)c1O`, for which the outcome with Aspergillus flavus and in the experiment with Fusarium verticillioides [2] was inactive.

With `COC(=O)c1c(C)c(C)c(O)c(C)c1O`, the zone of inhibition at 100 µg/disc with Staphylococcus aureus [4] and in the experiment with Bacillus subtilis [5] was 10 mm each time. The outcome in the experiment on Aspergillus flavus was inactive. The zone of inhibition at 250 µg/disc in the experiment on Fusarium verticillioides [2] came out at 30 mm.

Regarding GENTAMICIN SULFATE, the inhibition zone (IZ) with Bacillus subtilis [6] and in the experiment with Staphylococcus aureus [7] was 24 mm in each case.

For the compound `CCCCC[C@@H](O)[C@H]1C(=O)O[C@H](C)[C@@H](O)/C=C/C=C/C=C/C=C/C=C(\C)[C@@H](O)C[C@H](O)C[C@H](O)C[C@H](O)C[C@H](O)C[C@H](O)C[C@@H]1O` [FILIPIN], the zone of inhibition at 50 µg/disc in the experiment on Candida albicans [8] amounted to 15 mm.

For `O=C(O)c1cccnc1` [NIACIN], the result with Aspergillus flavus was inactive. The zone of inhibition at 250 µg/disc in the experiment with Fusarium verticillioides [2] was determined as 30 mm.
